pIC50: −log10 of the molar value.
Test system: 817829-284-R-J1-PDC spheroids with HUVEC/MSC, viability
Test: Anticancer human tumor 817829-284-R-J1-PDC patient-derived colon adenocarcinoma cell line growth inhibition [TAK]
Settings: for pIC50: curve of first compound; for viability, T/C: stronger effect = lower value; active = viability on the fitted dose curve at most 10% of control; inactive = the rest
Text: Combinatorial screen of targeted agents with TAK-243 and ipatasertib in multi-cell type tumor spheroids
A high-throughput screen of multi-cell type tumor spheroids was designed to identify active combinations of targeted small molecules and TAK-243 or ipatasertib. Complex spheroids include a stromal component modeled by human endothelial cells (HUVEC) and fibroblasts modeled by human mesenchymal stem cells (MSCs). The concentration ranges selected for each drug and investigational agent were based upon clinically achievable concentrations if the clinical Cmax of the agent was known.
Compounds. The drugs and investigational agents: TAK-243 (785004), ipatasertib (767898), everolimus (733504), selumetinib (741078), bortezomib (756655), trametinib (758246), ixazomib (758254), vemurafenib (761431), dabrafenib (764134), sapanisertib (764658), alpelisib (765974), and copanlisib (816437), were obtained from the National Cancer Institute (NCI) Developmental Therapeutics Program Chemical Repository. The FDA-approved anticancer drug set is available from the NCI Developmental Therapeutics Program. […] The stock solutions were prepared in dimethyl sulfoxide (DMSO, Sigma-Aldrich, St. Louis, MO, cat. D2650) at 800-fold the tested concentration and stored at -70 degrees C prior to their use. All drugs and investigational agents were tested over a range starting from a high concentration at or near the clinical Cmax and decreasing in half-log increments. If the clinical Cmax for an agent had not been determined, the highest concentration tested was 10 microM.
NCI60 Cell Culture. NCI60 cell lines were obtained from the NCI Developmental Therapeutics Program Tumor Repository. For each lot of cells, the Repository performed Applied Biosystems AmpFLSTR Identifiler testing with PCR amplification to confirm consistency with the published Identifier STR profile for each cell line. Cells were kept in continuous culture for no more than 20 passages. The optimal seeding densities for each of the cell lines at each time point assessed were determined prior to performing the concentration response studies. Briefly, the NCI60 human tumor lines were grown as monolayers in RPMI 1640 medium supplemented with 10% FBS and 2 mmol/L L-glutamine.
An additional 2 lines were from the NCI60 cell line panel including melanomas, MALME-3M and SK-MEL-2. Pooled donor human umbilical vein endothelial cells (HUVEC, Lonza, cat. CC-2519) and human mesenchymal stem cells (hMSC, Lonza, cat. PT-2501) were purchased from Lonza (Walkersville, MD).
PDMR cell lines were grown in complete medium (DC medium): Dulbecco's modified Eagle's medium (DMEM)/F12 supplemented with 5% fetal bovine serum (FBS), 2 mM L-glutamine, 100 U/mL penicillin and 100 µg/ml streptomycin, 0.4 µg/ml hydrocortisone, 10 ng/ml epidermal growth factor (EGF) recombinant human protein, 24 µg/mL adenine, and 0.1 mg/mL primocin. During culture from frozen stock vials, PDMR cells were cultured in the same medium containing 10 µM Y-27632 (see Table 3). The PDCs were cultured in complete DMEM/F12 media without 10 microM Y-27632 dihydrochloride for at least two passages prior to the screen. The pooled donor HUVEC and hMSC were cultured in endothelial cell growth medium 2 (PromoCell, Heidelberg, Germany, cat. C-22011) and mesenchymal stem cell growth medium 2 (PromoCell, cat. C-28009), respectively. For all experiments, HUVEC and hMSC were used at passages </=5.
For the pre-screen, cell seeding densities were determined from a titration spanning the range from 5,000 to 313 cells per well. The mct-spheroids including 60% malignant cells, 25% HUVEC and 15% MSC dispensed as a mixture into U-bottom Ultra-Low Attachment 384-well plates (Corning, NY)
High-throughput Drug Combination Screening.
Prior to their inoculation into 384-well plates, malignant cells, HUVEC, and hMSC were removed from T flasks using TrypLE express (Thermo Fisher Scientific, cat. 12605036) and harvested by centrifugation for 5 min at 233 x g. […]

CC(=O)Nc1cccc(-n2c(=O)n(C3CC3)c(=O)c3c(Nc4ccc(I)cc4F)n(C)c(=O)c(C)c32)c1 + CC(C)NCC(C(=O)N1CCN(c2ncnc3c2C(C)CC3O)CC1)c1ccc(Cl)cc1
inactive: viability, T/C (second compound 0.3 µM, first compound 94.9 pM) 60% | viability, T/C (second compound 0.3 µM, first compound 0.0003 µM) 36.2% | viability, T/C (second compound 0.3 µM, first compound 0.000949 µM) 22.1% | viability, T/C (second compound 0.3 µM, first compound 0.003 µM) 24.3% | viability, T/C (second compound 0.3 µM, first compound 0.00949 µM) 11.9% | viability, T/C (second compound 0.949 µM, first compound 94.9 pM) 19.3% | viability, T/C (second compound 0.949 µM, first compound 0.0003 µM) 19.1% | viability, T/C (second compound 0.949 µM, first compound 0.000949 µM) 13.8% | viability, T/C (second compound 0.949 µM, first compound 0.003 µM) 12.8% | viability, T/C (second compound 0.949 µM, first compound 0.00949 µM) 11.4% | viability, T/C (second compound 0.949 µM, first compound 0.03 µM) 10.6%
9.81: pIC50 (second compound 0.3 µM)
active: viability, T/C (second compound 0.3 µM, first compound 0.03 µM) 7.59% | viability, T/C (second compound 3 µM, first compound 94.9 pM) 9.84% | viability, T/C (second compound 3 µM, first compound 0.0003 µM) 8.37% | viability, T/C (second compound 3 µM, first compound 0.000949 µM) 8.93% | viability, T/C (second compound 3 µM, first compound 0.003 µM) 8.79% | viability, T/C (second compound 3 µM, first compound 0.00949 µM) 7.98% | viability, T/C (second compound 3 µM, first compound 0.03 µM) 7.61% | viability, T/C (second compound 9.49 µM, first compound 94.9 pM) 6.42% | viability, T/C (second compound 9.49 µM, first compound 0.0003 µM) 5.85% | viability, T/C (second compound 9.49 µM, first compound 0.000949 µM) 5.02% | viability, T/C (second compound 9.49 µM, first compound 0.003 µM) 5.15% | viability, T/C (second compound 9.49 µM, first compound 0.00949 µM) 5.13% | viability, T/C (second compound 9.49 µM, first compound 0.03 µM) 4.15% | viability, T/C (second compound 30 µM, first compound 94.9 pM) 4.66% | viability, T/C (second compound 30 µM, first compound 0.0003 µM) 4.56% | viability, T/C (second compound 30 µM, first compound 0.000949 µM) 3.15% | viability, T/C (second compound 30 µM, first compound 0.003 µM) 3.45% | viability, T/C (second compound 30 µM, first compound 0.00949 µM) 2.76% | viability, T/C (second compound 30 µM, first compound 0.03 µM) 2.65%
> 10.02: pIC50 (second compound 0.949 µM) | pIC50 (second compound 3 µM) | pIC50 (second compound 9.49 µM) | pIC50 (second compound 30 µM)

CC(C)CC(NC(=O)C(Cc1ccccc1)NC(=O)c1cnccn1)B(O)O (stereo not given) + CC(C)NCC(C(=O)N1CCN(c2ncnc3c2C(C)CC3O)CC1)c1ccc(Cl)cc1
active: viability, T/C (second compound 0.3 µM, first compound 0.01 µM) 0.6% | viability, T/C (second compound 0.949 µM, first compound 0.01 µM) 0.35% | viability, T/C (second compound 3 µM, first compound 0.01 µM) 0.2% | viability, T/C (second compound 9.49 µM, first compound 0.001 µM) 13.6% | viability, T/C (second compound 9.49 µM, first compound 0.00316 µM) 8.78% | viability, T/C (second compound 9.49 µM, first compound 0.01 µM) 0.15% | viability, T/C (second compound 30 µM, first compound 0.0001 µM) 8.27% | viability, T/C (second compound 30 µM, first compound 0.000316 µM) 10.2% | viability, T/C (second compound 30 µM, first compound 0.001 µM) 9.25% | viability, T/C (second compound 30 µM, first compound 0.00316 µM) 6.13% | viability, T/C (second compound 30 µM, first compound 0.01 µM) 0.2%
8.37: pIC50 (second compound 0.949 µM)
> 10.50: pIC50 (second compound 3 µM) | pIC50 (second compound 9.49 µM) | pIC50 (second compound 30 µM)
inactive: viability, T/C (second compound 0.3 µM, first compound 31.6 pM) 108% | viability, T/C (second compound 0.3 µM, first compound 0.0001 µM) 104% | viability, T/C (second compound 0.3 µM, first compound 0.000316 µM) 105% | viability, T/C (second compound 0.3 µM, first compound 0.001 µM) 100% | viability, T/C (second compound 0.3 µM, first compound 0.00316 µM) 80.7% | viability, T/C (second compound 0.949 µM, first compound 31.6 pM) 88% | viability, T/C (second compound 0.949 µM, first compound 0.0001 µM) 60.8% | viability, T/C (second compound 0.949 µM, first compound 0.000316 µM) 64.6% | viability, T/C (second compound 0.949 µM, first compound 0.001 µM) 77.2% | viability, T/C (second compound 0.949 µM, first compound 0.00316 µM) 66.7% | viability, T/C (second compound 3 µM, first compound 31.6 pM) 29.4% | viability, T/C (second compound 3 µM, first compound 0.0001 µM) 22.9% | viability, T/C (second compound 3 µM, first compound 0.000316 µM) 29.9% | viability, T/C (second compound 3 µM, first compound 0.001 µM) 22.3% | viability, T/C (second compound 3 µM, first compound 0.00316 µM) 19.9% | viability, T/C (second compound 9.49 µM, first compound 31.6 pM) 12.7% | viability, T/C (second compound 9.49 µM, first compound 0.0001 µM) 13.2% | viability, T/C (second compound 9.49 µM, first compound 0.000316 µM) 11.6% | viability, T/C (second compound 30 µM, first compound 31.6 pM) 8.2%
8.31: pIC50 (second compound 0.3 µM)

From PubChem BioAssay AID2060347 (Molecular Pharmacology Branch, DTP, NCI, 2025)
